Counter-ions that a name gives are not always drawn.
conditions: bovine, in vivo, im, 5 mg/kg
Method: The terminal half-lives (t1/2) after single injection (i.m.) of 5 mg of betaine VI (n=2) per kg of body weight for cattle are summarized in Table 1 for compounds according to the invention. […] The known salts sulfate and dihydroiodide from DE 3 706 020 are used as a standard.

Row | Compound | Terminal half-lives (t1/2) [h]
1 | CO/N=C(\C(=O)N[C@@H]1C(=O)N2C(C(=O)[O-])=C(C[n+]3cccc4c3CCCC4)CS[C@H]12)c1csc(N)n1 [Example 11, cefquinome-2,4-dihydroxybenzoate] | 16.20
2 | CO/N=C(\C(=O)N[C@@H]1C(=O)N2C(C(=O)[O-])=C(C[n+]3cccc4c3CCCC4)CS[C@H]12)c1csc(N)n1 [Example 21] | 9.96
3 | CO/N=C(\C(=O)N[C@@H]1C(=O)N2C(C(=O)[O-])=C(C[n+]3cccc4c3CCCC4)CS[C@H]12)c1csc(N)n1 [Sulfate, cefquinome sulfate, reference compound] | 2.15
4 | CO/N=C(\C(=O)N[C@@H]1C(=O)N2C(C(=O)[O-])=C(C[n+]3cccc4c3CCCC4)CS[C@H]12)c1csc(N)n1 [Example 19] | 7.07
5 | CO/N=C(\C(=O)N[C@@H]1C(=O)N2C(C(=O)[O-])=C(C[n+]3cccc4c3CCCC4)CS[C@H]12)c1csc(N)n1 [Example 16] | 9.16
6 | CO/N=C(\C(=O)N[C@@H]1C(=O)N2C(C(=O)[O-])=C(C[n+]3cccc4c3CCCC4)CS[C@H]12)c1csc(N)n1 [Example 18] | 13.00
7 | CO/N=C(\C(=O)N[C@@H]1C(=O)N2C(C(=O)[O-])=C(C[n+]3cccc4c3CCCC4)CS[C@H]12)c1csc(N)n1 [Example 23] | 12.70
8 | CO/N=C(\C(=O)N[C@@H]1C(=O)N2C(C(=O)[O-])=C(C[n+]3cccc4c3CCCC4)CS[C@H]12)c1csc(N)n1 [Dihydroiodide, reference compound] | 4.19
9 | CO/N=C(\C(=O)N[C@@H]1C(=O)N2C(C(=O)[O-])=C(C[n+]3cccc4c3CCCC4)CS[C@H]12)c1csc(N)n1 [Example 6] | 5.87

The next lines start with the values.

Row | Terminal half-lives (t1/2) [h] | Compound
10 | 15.6 | CO/N=C(\C(=O)N[C@@H]1C(=O)N2C(C(=O)[O-])=C(C[n+]3cccc4c3CCCC4)CS[C@H]12)c1csc(N)n1 [Example 9]
11 | 9.21 | CO/N=C(\C(=O)N[C@@H]1C(=O)N2C(C(=O)[O-])=C(C[n+]3cccc4c3CCCC4)CS[C@H]12)c1csc(N)n1 [Example 13]
12 | 11.1 | CO/N=C(\C(=O)N[C@@H]1C(=O)N2C(C(=O)[O-])=C(C[n+]3cccc4c3CCCC4)CS[C@H]12)c1csc(N)n1 [Example 15]
13 | 15.20 | CO/N=C(\C(=O)N[C@@H]1C(=O)N2C(C(=O)[O-])=C(C[n+]3cccc4c3CCCC4)CS[C@H]12)c1csc(N)n1 [Example 12]
14 | 17.8 | CO/N=C(\C(=O)N[C@@H]1C(=O)N2C(C(=O)[O-])=C(C[n+]3cccc4c3CCCC4)CS[C@H]12)c1csc(N)n1 [Example 17]
15 | 8.77 | CO/N=C(\C(=O)N[C@@H]1C(=O)N2C(C(=O)[O-])=C(C[n+]3cccc4c3CCCC4)CS[C@H]12)c1csc(N)n1 [Example 22]
16 | 9.20 | CO/N=C(\C(=O)N[C@@H]1C(=O)N2C(C(=O)[O-])=C(C[n+]3cccc4c3CCCC4)CS[C@H]12)c1csc(N)n1 [Example 1, Cefquinome-6-hydroxy-1-naphthoate]
17 | 9.39 | CO/N=C(\C(=O)N[C@@H]1C(=O)N2C(C(=O)[O-])=C(C[n+]3cccc4c3CCCC4)CS[C@H]12)c1csc(N)n1 [Example 20]
18 | 18.8 | CO/N=C(\C(=O)N[C@@H]1C(=O)N2C(C(=O)[O-])=C(C[n+]3cccc4c3CCCC4)CS[C@H]12)c1csc(N)n1 [Example 2]
